# Like-named read-outs stand apart in the source and are kept apart here.
# Experiments:
# [1] = cited from earlier work; for predicted t90 for 10% conversion to (E)-endoxifen: solid state
# [2] = cited from earlier work
# [3] = Placebo controlled, dose escalation pharmacokinetic study of oral (Z)-Endoxifen capsules (serum endoxifen; incl. accumulation ratios and dose linearity); assay type: in vivo, human
# Text: An objective of the study was to assess the safety and tolerability of oral (Z)-Endoxifen when administered […] orally as a capsule to healthy female volunteers. A secondary objective was to assess the pharmacokinetics of multiple doses of oral (Z)-Endoxifen in the subjects.
# Generally, healthy female volunteers aged ≥18 years and ≤65 years were enrolled. 24 participants were enrolled in 3 cohorts and will be administered study drug orally. Three dose levels of orally administered (Z)-Endoxifen were investigated in 3 cohorts. In each cohort participants were randomized to receive an oral (Z)-Endoxifen or placebo in a blinded fashion. Enteric-resistant capsules used in the study were designed as delayed release capsules to resist rupture for at least 30 minutes, but typically, for about 2 hours, under gastric conditions and then open fully in intestinal fluid (DRCaps; Capsugel, a Lonza Company, USA). Enteric-resistant (Swedish Orange size Zero (0); Capsugel, USA) DRCaps capsules manually filled with 1, 2 or 4 mg of (Z)-endoxifen neat in compliance with GMP requirements were used. Placebo capsules contained microcrystalline cellulose an inert common capsule and tablet excipient.
# Each cohort enrolled 8 participants, with 6 participants receiving (Z)-Endoxifen 1 mg capsules orally at 1 mg (Cohort 1), 2 mg (Cohort 2) or 4 mg (Cohort 3) doses and 2 participants receiving matching placebo capsules. In Cohort 1 (Dose Level=1 mg) two participants (sentinels) were dosed 24 hours prior to the remaining participants. One sentinel was dosed with (Z)-Endoxifen and the other with placebo. The remaining six participants in Cohort 1 were dosed as no safety concerns were identified in the sentinel participants. The non-sentinel participants in Cohort 1 were admitted to the clinical research facility at least one day later than the sentinels. There were no sentinels in Cohorts 2 and 3.
# Participant engagement in this study was for a period of 56 days. These included a 28 day screening period, and a 7 day post treatment period for Pharmacokinetic (PK) sampling. There were two confinement periods, one at the beginning and one at the end of the dosing periods. Participants were confined to the clinical facility on Days-1 through to Day 2 and Days 21 and 22. If participants were to experience any clinically significant adverse events during the study, they would have been required to remain in the clinical facility for further observation at the discretion of the Principal Investigator (PI).
# Healthy female volunteers were screened within 28 days prior to commencement of dosing. Participants were admitted to the clinical facility on Day-1 for up to 3 days. The first dose of (Z)-Endoxifen or placebo capsules was administered on Day 1. Following completion of all safety assessments and sampling for PK analyses, participants were discharged from the clinical facility on Day 2. The first dose on Day 1 was followed by a 6-day treatment free period (Days 2-7). Each participant returned to the clinical facility for PK blood draws and safety assessments during the treatment free period on study Days 4 and 6. On Day 8 participants commenced daily administration of (Z)-Endoxifen capsules or placebo capsules for 14 consecutive days (Days 8-21). Participants were supplied with study drug capsules and asked to self administer daily. Participants visited the clinical facility on Days 11, 14 and 17, prior to dose administration, for PK blood draws and safety assessments. On the morning of Day 21 each participant returned to the clinical facility prior to dose administration and were confined to the facility until Day 22 to allow for the collection of PK blood draws and safety assessments. The Day 21 dose was the last administration of study drug. Participants were discharged from the clinical facility on Day 22 and returned for PK blood draws and safety assessments on study Days 24, 26, and 28. […]
smiles,measurement,setting,value
CC/C(=C(\c1ccc(O)cc1)c1ccc(OCCNC)cc1)c1ccccc1.Cl [(Z)-endoxifen HCl],t90,"[1]; aqueous medium, 45° C.",9 days
same,predicted t90 for 10% conversion to (E)-endoxifen,[1]; 25° C./60% RH,53 months
same,predicted t90 for 10% conversion to (E)-endoxifen,[1]; 40° C./75% RH,4.3 months
"CC/C(=C(\c1ccccc1)c1ccc(OCCN(C)C)cc1)c1ccccc1 [tamoxifen, (Z)-2-[4-(1,2-diphenyl-1-butenyl)phenoxy]-N,N-dimethylethanamine]",Terminal elimination half life,[2]; in vivo,120 to 170 h
same,peak concentration time,[2]; post-dose,approximately 5 hours
CC/C(=C(\c1ccc(O)cc1)c1ccc(OCCNC)cc1)c1ccccc1 [Endoxifen],dose linearity β Estimate,"[3]; AUC24 hr (log), Day 1",0.873
same,dose linearity β Estimate,"[3]; AUC24 hr (log), Day 21",1.008
same,dose linearity β Estimate,"[3]; Cmax (log), Day 1",0.808
same,dose linearity β Estimate,"[3]; Cmax (log), Day 21",1.055
